We go through 20 compounds from PubChem BioAssay (NCI).

Common to all, as to assay: NCI tumour cell line growth inhibition, 48 h
Experiment [1] relates to SNB-75 CNS.
Experiment [2] relates to DU-145 prostate.
The test system of experiment [3] is UO-31 renal.
Experiment [4] deals with UACC-257 melanoma.
Experiment [5] deals with HOP-62 NSCLC.
The test system of experiment [6] is HCC-2998 colon.
Experiment [7] deals with A498 renal.
Experiment [8] has as its system NCI-H226 lung.
Experiment [9] concerns RXF 393 renal.
For experiment [10], the system named is SF-268 CNS.

SMILES strings stand for the structures. Several values for one entry are separate records, joined by “and”; a condition that tells them apart may be missing. Equal values may be shown once.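 A five-concentration, 48-hour dose response in 96-well plates underlies each endpoint, interpolated linearly between surrounding concentrations. Abbreviation: GI50, concentration required for 50% inhibition of growth. TGI denotes the concentration required for complete inhibition of growth.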

Regarding `Cc1ccccc1-n1c(/C=C\c2ccccn2)nc2ccccc2c1=O`, the GI50 in experiment [1] is 16.9 µM; in experiment [2], 3.4 µM; in [3], 7.51 µM; in experiment [4], 31 µM; in experiment [5] it was 47.4 µM; in experiment [6], 15.9 µM. Besides, the GI50 was 9.47 µM in [7], 28.8 µM in experiment [8], 4.33 µM in [9] and 15.2 µM in experiment [10]. Moreover, the TGI in [1] was over 100 µM; in experiment [2] it was 11.3 µM; in experiment [3], over 100 µM; in [4], over 100 µM; in [5] it was over 100 µM; in experiment [6], 29.9 µM. The TGI was 70.6 µM in experiment [7], over 100 µM in experiment [8], 20 µM in experiment [9] and over 100 µM in experiment [10].
Turning to `CC1CCCN(CC(O)CN2CCCc3ccccc32)C1` (stereo not drawn), the TGI in [1], in [2], in experiment [3], in experiment [4], in [5] and in experiment [7] was over 100 µM in each case. Also, the TGI in experiment [8], in experiment [9] and in experiment [10] was over 100 µM throughout.
Take `COc1ccc2c(c1OC)-c1c(c3ccc([N+](=O)[O-])cc3c(=O)n1CCCN=[N+]=[N-])C2=O`: the GI50 is 4.88 µM in experiment [2]; 3.5 µM in experiment [3]; 17.2 µM in [4]; 5.02 µM in experiment [5]; 79.9 µM in experiment [6]; 82.3 µM in [7]. Also, the GI50 is 22.8 µM in [8], 10.1 µM in [9] and 30.3 µM in experiment [10]. Further, the TGI was over 100 µM in experiment [2]; over 100 µM in experiment [3]; over 100 µM in experiment [4]; 92.8 µM in experiment [5]; over 100 µM in experiment [6]; over 100 µM in experiment [7]. In addition, the TGI in experiment [8] was 99.3 µM; in experiment [9], over 100 µM; in [10] it was over 100 µM.
`O=C(O)c1ccc(S(=O)(=O)N=Nc2c(O)[nH]c3ccccc23)cc1`: the TGI in experiment [1], in [2], in [3], in [4], in experiment [5] and in [6] was over 100 µM each time. In addition, the TGI in experiment [7], in [8], in experiment [9] and in [10] was over 100 µM throughout.
For the compound `C=CC[Se]C(=O)Cc1c(C)n(C(=O)c2ccc(Cl)cc2)c2ccc(OC)cc12`, the GI50 in experiment [1] is 1.48 µM; in experiment [2], 1.9 µM; in experiment [3] it was 1.54 µM; in experiment [4] it was 2.02 µM; in [5], 0.435 µM; in [6], 1.64 µM. The GI50 in experiment [7] is 1.52 µM; in [10], 2.23 µM. The TGI in [1] was 2.81 µM; in experiment [2], 3.75 µM; in experiment [3], 2.88 µM; in experiment [4], 4.64 µM; in [5], 2.93 µM; in [6], 3.2 µM. Besides, the results for the TGI in experiment [7] and in experiment [10] were 4.25 µM and 5.7 µM, respectively.
Turning to `COc1cc(OC)c(OC)cc1/C=C1\C=Cc2ccccc21`, the TGI is over 100 µM in experiment [2]; 64.2 µM in experiment [3]; 37.7 µM in experiment [4]; 37.5 µM in experiment [5]; 28.4 µM in experiment [6]; over 100 µM in experiment [8]. Further, the TGI in [9] is 49.7 µM; in experiment [10], over 100 µM.
Consider `COc1ccc(OC)c(-c2cc(-c3ccccc3)nn2-c2ccc(S(N)(=O)=O)cc2)c1`, for which the GI50 is 15.6 µM in experiment [2]; 17.8 µM in experiment [3]; 15.2 µM in experiment [4]; 23 µM in [6]; 15 µM in experiment [8]; 12.6 µM in [10]. Besides, the TGI in experiment [2] came out at 29.5 µM; in experiment [3], 50.4 µM; in [4], 31.6 µM; in experiment [6], 37.9 µM; in experiment [8], 33.6 µM; in experiment [10], 27.5 µM.
Turning to `c1ccc2cc(OCC3CO3)c(OCC3CO3)cc2c1` (stereo not drawn), the TGI in experiment [1] was determined as 18.6 µM; in [2] it was 16.7 µM; in [3] it was 21.8 µM; in [4], 24.1 µM; in [5] it was 13.6 µM; in experiment [7], 24.7 µM. Further, the TGI in [9] is 1.47 µM; in [10], 13.3 µM.
For the compound `CC(C)c1cc(CNc2nc(Nc3cc(C4CC4)[nH]n3)cc(N3CCN(C)CC3)n2)on1`, the GI50 was 1.57 µM and 0.205 µM in [2]; 2 µM and 0.688 µM in [3]; 2.79 µM and 0.343 µM in experiment [6]; 0.363 µM and 0.0576 µM in [8]; 1.7 µM and 0.277 µM in [10]. The TGI in experiment [3] is > 10 µM and 5.9 µM; in experiment [4], > 10 µM and 5.53 µM; in experiment [6] it was > 10 µM and 6.39 µM; in [8] it was 4.18 µM and 3.6 µM; in experiment [10] it was > 10 µM and 2.25 µM.
`CC12CCc3ccccc3C1=Nc1ccccc12` (stereo not drawn): the TGI was over 100 µM in experiment [1]; over 100 µM in experiment [2]; over 100 µM in [3]; over 100 µM in experiment [4]; over 100 µM in [5]; 89.8 µM in [8]. For the same compound, the TGI in experiment [9] and in experiment [10] was over 100 µM throughout.
On to `Cc1c2ncccc2nc2[nH]c3ccc(OCCN(C)C)cc3c12`, for which the GI50 is 1.9 µM in experiment [2]; 1.84 µM in [3]; 10.4 µM in [4]; 1.73 µM in experiment [5]; 1.64 µM in experiment [6]; 5.18 µM in [7]. Also, the GI50 is 5.05 µM in [8], 2.89 µM in experiment [9] and 2.16 µM in experiment [10]. Moreover, the TGI was 11.6 µM in experiment [2]; 11.5 µM in [3]; 28.5 µM in experiment [4]; 13.7 µM in [5]; 14.6 µM in [6]; 20 µM in experiment [7]. Moreover, the TGI in experiment [8] stood at 21.5 µM; in experiment [9], 9.92 µM; in experiment [10], 15.4 µM.
`COc1ccc2[nH]c(-c3cccc(N(C)C)c3)cc(=O)c2c1`: the GI50 was 0.371 µM in experiment [1]; 0.589 µM in experiment [2]; 0.633 µM in experiment [3]; 0.361 µM in [4]; 0.335 µM and 0.844 µM in experiment [5]; 0.472 µM in [6]. Also, the GI50 in experiment [8] is 0.581 µM; in experiment [10], 0.657 µM. The TGI in experiment [1] was 50.2 µM; in [3], over 100 µM; in experiment [4] it was over 100 µM; in experiment [5], 94.2 µM; in experiment [6], 3.29 µM and 2.29 µM; in experiment [9], 0.351 µM. In [10], this compound registered a TGI of 33.7 µM.
Regarding `CCOC(=O)c1c(C)n(CC(C)C)c2c1cc1oc(=O)c(=O)n3cnc2c13`, the GI50 in experiment [1] is 12.5 µM; in [2], 16.3 µM; in experiment [3] it was 20.7 µM; in experiment [4], 11.3 µM; in [5] it was 35 µM; in [7], 14.2 µM. The GI50 in experiment [8] is 9.63 µM; in experiment [9], 12.9 µM; in experiment [10], 18 µM. The TGI in experiment [1] was over 50 µM; in experiment [2] it was over 50 µM; in [3], over 50 µM; in experiment [4], 30.5 µM; in experiment [5] it was over 50 µM; in [7] it was 41.3 µM. The TGI in [8] was 29.2 µM; in [9], 49.7 µM; in experiment [10], over 50 µM.
As to `COc1ccccc1CNC(=O)C1c2ccccc2C(=O)N(CC(C)C)C1c1cccs1` (stereo not drawn), the GI50 is 18.1 µM in [1]; 38.4 µM in experiment [2]; 17.7 µM in experiment [3]; 40.7 µM in experiment [5]; 47.8 µM in [6]; 11.9 µM in experiment [7]. In addition, the values for the GI50 in experiment [8], in [9] and in experiment [10] were 20.4 µM, 17.3 µM and 30.6 µM, respectively. In addition, the TGI is over 100 µM in experiment [1]; over 100 µM in experiment [2]; 72.5 µM in experiment [3]; over 100 µM in experiment [5]; over 100 µM in experiment [6]; 51.5 µM in [7]. Besides, the values for the TGI in experiment [8], in [9] and in experiment [10] were 72.4 µM, 48 µM and over 100 µM, respectively.
`CN1CCN(Cc2ccc(NC(=O)c3[nH]ncc3Nc3ncnc4sccc34)cc2)CC1`: the GI50 was 0.023 µM in experiment [1]; 0.35 µM in experiment [2]; 0.357 µM in experiment [3]; 2.12 µM in [4]; 0.437 µM in experiment [5]; 0.0172 µM in experiment [7]. In addition, the GI50 was 0.169 µM in experiment [8], 0.171 µM in experiment [9] and 0.446 µM in experiment [10]. Moreover, the TGI in experiment [1] is 2.3 µM; in [2], over 100 µM; in experiment [3], 3.54 µM; in [4], over 100 µM; in [5], over 100 µM; in [7] it was 1.12 µM. Besides, the TGI in experiment [8] was over 100 µM; in experiment [9] it was 0.535 µM; in experiment [10], 3.73 µM.
Take `CC(F)(F)c1cc(F)ccc1-c1sc2cc(O)ccc2c1Oc1ccc(/C=C/C(=O)O)cc1`: the GI50 in experiment [1] is 3.52 µM; in [2], 12.7 µM; in experiment [3], 12.9 µM; in experiment [4] it was 14.2 µM; in experiment [5] it was 9.03 µM; in experiment [6], 12.7 µM. The GI50 in experiment [8] is 5.78 µM; in experiment [9], 2.89 µM; in [10], 7.31 µM. The TGI in [1] was found to be 19.8 µM; in [2] it was 28.5 µM; in experiment [3], 31.5 µM; in experiment [4] it was 57.5 µM; in [5], 26.8 µM; in experiment [6], 30.6 µM. Moreover, the TGI in [8] was 25 µM; in experiment [9], 14.5 µM; in experiment [10], 24.1 µM.
Consider `COc1ccc(NC(=O)Nc2ccc(Nc3nc(C)cc(Nc4ccc(C)cc4)n3)cc2)cc1`, for which the GI50 in experiment [1] was 1.53 µM; in experiment [2], 1.16 µM; in [3], 1.48 µM; in [4] it was 1.89 µM; in [5] it was 1.58 µM; in experiment [6], 1.89 µM. Besides, the GI50 is 7.29 µM in experiment [7], 1.61 µM in experiment [9] and 2.16 µM in experiment [10]. The TGI in experiment [1] stood at 3 µM; in [2] it was 2.59 µM; in [3] it was 2.82 µM; in [4], 3.69 µM; in [5], 3.05 µM; in [6], 3.59 µM. The TGI in [7] amounted to 18.8 µM; in [9] it was 3.12 µM; in experiment [10], 5.07 µM.
Regarding `O=[N+]([O-])c1cc(Cl)cc2c1nc(NCCO)c1ccccc12`, the TGI in [1] is over 81.7 µM; in experiment [2], 15.9 µM; in experiment [3], over 100 µM; in experiment [4], 54.8 µM; in experiment [5] it was over 100 µM; in experiment [7], 56.4 µM. Also, the TGI in experiment [8] is over 80.2 µM; in experiment [9], 19.3 µM; in experiment [10], over 100 µM.
Take `CCCCSCc1nc2nc(Cl)c(Cl)nc2[nH]1`: the TGI in [1] is 57.5 µM; in experiment [2], over 100 µM; in [4] it was 44.5 µM; in [5], 42 µM; in experiment [7], 60.6 µM; in experiment [8], 62.7 µM. The TGI is 68.8 µM in [9] and over 100 µM in experiment [10].
For the compound `Cc1c(C2Cc3ccccc3N2C(=O)/C=C\C(=O)O)c2ccccc2n1C` (stereo not drawn), the TGI was 74.2 µM in experiment [1]; over 100 µM in [3]; 36.3 µM in experiment [4]; 57.1 µM in [5]; 39.5 µM in experiment [6]; 66.3 µM in experiment [7]. The TGI was 57.6 µM in experiment [8], 33.1 µM in experiment [9] and 35.9 µM in experiment [10].
